The results in this text go back to paper PMC11822212, “High-throughput screening identifies Aurora kinase B as a critical therapeutic target for Merkel cell carcinoma” (Nature Communications, 2025).

Each structure is given as a SMILES string.

For experiment [1], the system named is MCC13 cells (VN-MCC). Description: qHTS cell viability (CellTiter-Glo, 72 h; primary and follow-up small molecule screen). Type of experiment: cell-based, human.
In experiment [2] the test system is MCC26 cells (VN-MCC). The description is as above. The class given is cell-based, human.
In experiment [3] the test system is UISO cells (VN-MCC). The description is as above. Type of experiment: cell-based, human.
The test system of experiment [4] is WAGA cells (VP-MCC). The experiment is described as above. Type of experiment: cell-based, human.
Experiment [5] has as its system MKL-1 cells (VP-MCC). Described as above. The class given is cell-based, human.
Experiment [6] deals with MKL-2 cells (VP-MCC). Described as above. Type of experiment: cell-based, human.
Experiment [7] deals with HACAT cells. Kind of experiment: qHTS cell viability (CellTiter-Glo, 72 h; primary screen), control cell line. Type of experiment: cell-based, human. In general terms: In qHTS, concentration-response curves come from the screen itself.
The test system of experiment [8] is HEK293T cells. The description is as above. Type of experiment: cell-based, human.
In experiment [9] the test system is NIH-3T3 cells. The description is as above. Type of experiment: cell-based, mouse.
Experiment [10] has as its system CRL-7250 cells. The experiment is described as above. The class given is cell-based.
Experiment [11] relates to MCC cell lines (WAGA, MKL-1, MKL-2, MCC13, MCC26, UISO). Description: qHTS cell viability, all six MCC cell lines as a group (mean AUC, MCC.avg). The conditions noted are these: mean AUC of six MCC cell lines. Type of experiment: cell-based, human.
Experiment [12] has as its system VP-MCC cell lines (WAGA, MKL-1, MKL-2). Kind of experiment: qHTS cell viability, VP-MCC cell lines as a group (mean AUC, VP.MCC.avg). The conditions noted are these: for VP-MCC_Avg_AUC: mean AUC of VP-MCC cell lines. Type of experiment: cell-based, human.
Experiment [13] concerns VN-MCC cell lines (MCC13, MCC26, UISO). Kind of experiment: qHTS cell viability, VN-MCC cell lines as a group (mean AUC, VN.MCC.avg). The conditions noted are these: for VN-MCC_Avg_AUC: mean AUC of VN-MCC cell lines. Type of experiment: cell-based, human.
Experiment [14] concerns control cell lines (HACAT, HEK293T, CRL-7250, NIH-3T3). Kind of experiment: qHTS cell viability, control cell lines as a group (mean AUC, Control.avg). The class given is cell-based. Particulars: mean AUC of control cell lines.
Experiment [15] concerns six MCC cell lines and four control cell lines. Description: qHTS cell viability, all 10 cell lines screened. The class given is cell-based.
[16] abbreviates: MIPE library, 11-point DRC, sheet S2E.
The mark [17] stands for this setting: MIPE library, 11-point DRC, control cell line, sheet S2E.

Regarding `CC1=C(/C=C/C(C)=C/C=C/C(C)=C\C(=O)O)C(C)(C)CCC1` [Isotretinoin], the MCC13_AUC in [1] (setting [16]) amounted to 457.493; in [1] (area under the dose-response curve, MCC13 cells, AUC<450 = reduced viability), 457.493. Moreover, the MCC26_AUC in [2] (setting [16]) was 479.481; in experiment [2] (area under the dose-response curve, MCC26 cells, AUC<450 = reduced viability), 479.481. In addition, the UISO_AUC in [3] (setting [16]) stood at 453.203; in experiment [3] (area under the dose-response curve, UISO cells, AUC<450 = reduced viability), 453.203. Moreover, the WAGA_AUC was 423.315 in [4] (setting [16]) and 423.315 in [4] (area under the dose-response curve, WAGA cells, AUC<450 = reduced viability). For the same compound, the MKL1_AUC in [5] (setting [16]) was determined as 418.758; in experiment [5] (area under the dose-response curve, MKL-1 cells, AUC<450 = reduced viability), 418.758. In addition, the MKL2_AUC is 402.656 in experiment [6] (setting [16]) and 402.656 in experiment [6] (area under the dose-response curve, MKL-2 cells, AUC<450 = reduced viability). Besides, the HACAT_AUC in [7] (setting [17]) was found to be 476.199; in experiment [7] (area under the dose-response curve, HACAT control cells, AUC<450 = reduced viability), 476.199. Besides, the HEK293T_AUC in experiment [8] (setting [17]) is on record as 469.58; in experiment [8] (area under the dose-response curve, HEK293T control cells, AUC<450 = reduced viability) it was 469.58. Moreover, the NIH3T3_AUC in [9] (setting [17]) came to 458.083; in experiment [9] (area under the dose-response curve, NIH3T3 control cells, AUC<450 = reduced viability), 458.083. In addition, the CRL7250_AUC in [10] (setting [17]) came to 458.179; in experiment [10] (area under the dose-response curve, CRL7250 control cells, AUC<450 = reduced viability), 458.179. In addition, the MCC_Avg_AUC in experiment [11] (MIPE library, sheet S2E) is on record as 439.151. The compound also yielded a Control-VP-MCC in experiment [12] (MIPE library, Control AUC minus VP-MCC AUC (therapeutic window), sheet S2E) of 50.6007. For the same compound, the VP-MCC_Avg_AUC in experiment [12] (MIPE library, sheet S2E) was 414.91. For the same compound, the Control-VN-MCC in experiment [13] (MIPE library, Control AUC minus VN-MCC AUC (therapeutic window), sheet S2E) is 2.118. The same compound returned a VN-MCC_Avg_AUC in experiment [13] (MIPE library, sheet S2E) of 463.393. This compound also displayed a Control_Avg_AUC in experiment [14] (MIPE library, sheet S2E) of 465.51. The Control-MCC in experiment [15] (MIPE library, Control AUC minus MCC AUC (therapeutic window), sheet S2E) came out at 26.3592.

Compound `CN(CC1(C)CCCO1)S(=O)(=O)c1ccc(Cl)c(S(N)(=O)=O)c1` (centres unmarked) [Mefruside] came in with an MCC13_AUC in experiment [1] (NPC library, qHTS dose-response AUC, MCC13) of 487.176. The compound further yielded an MCC26_AUC in experiment [2] (NPC library, qHTS dose-response AUC, MCC26) of 494.694. In experiment [3] (NPC library, qHTS dose-response AUC, UISO), this compound displayed a UISO_AUC of 490.08. The compound further returned a WAGA_AUC in [4] (NPC library, qHTS dose-response AUC, WAGA) of 408.321. The compound further gave an MKL1_AUC in experiment [5] (NPC library, qHTS dose-response AUC, MKL1) of 435.185. This compound also displayed an MKL2_AUC in [6] (NPC library, qHTS dose-response AUC, MKL2) of 389.363. The compound further gave an HACAT_AUC in experiment [7] (NPC library, qHTS dose-response AUC, HACAT control) of 466.668. Also, the HEK293T_AUC in experiment [8] (NPC library, qHTS dose-response AUC, HEK293T control) stood at 446.841. Also, the NIH3T3_AUC in experiment [9] (NPC library, qHTS dose-response AUC, NIH3T3 control) is 485.692. Moreover, the CRL7250_AUC in [10] (NPC library, qHTS dose-response AUC, CRL7250 control) is 471.553. The MCC_Avg_AUC in experiment [11] (NPC library) came out at 450.803. Moreover, in experiment [12] (NPC library), the VP-MCC_Avg_AUC was found to be 410.957. In experiment [12] (NPC library, therapeutic window: Control avg AUC minus VP-MCC avg AUC), this compound had a Control-VP-MCC of 56.732. For the same compound, the VN-MCC_Avg_AUC in experiment [13] (NPC library) is listed as 490.65. Besides, the Control-VN-MCC in experiment [13] (NPC library, therapeutic window: Control avg AUC minus VN-MCC avg AUC) is listed as -22.9615. Further, the Control_Avg_AUC in [14] (NPC library) is listed as 467.688. The compound also showed a Control-MCC in [15] (NPC library, therapeutic window: Control avg AUC minus MCC avg AUC) of 16.8852.
